Publication PMC9551036, “A selective and orally bioavailable VHL-recruiting PROTAC achieves SMARCA2 degradation in vivo” (Nature Communications, 2022)
“And” between values parts separate entries of the source, which are not always exact repeats. Equal values may be shown once. Read-outs that look alike come from different tables or passages of the source.

How the values were obtained:
[1] = target: T1, VCB: PROTAC: SMARCA2^BD ternary complex (Homo sapiens, UniProt P51531); assay: TR-FRET ternary complex affinity and cooperativity, SMARCA2; format: binding
T1 construct: P51531-2, residues 1373-1493 with additional N-terminal SM residues; GST (TEV site) (N); His6 (TEV site) (N, cleaved yes); made in house; host or cells: SMARCA2^BD: Escherichia coli BL21(DE3)
T1 sequence (P51531 with tags, fused parts or gaps isoform P51531-2): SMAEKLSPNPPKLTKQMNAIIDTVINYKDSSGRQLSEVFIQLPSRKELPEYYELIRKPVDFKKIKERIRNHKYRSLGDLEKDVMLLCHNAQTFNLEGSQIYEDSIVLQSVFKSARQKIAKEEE

[2] = tested on: NCI-H1568 cells; assay: Cell viability assay (CellTiter Glo) in NCI-H1568; format: cell-based, human; details: for IC50: CellTiter Glo, individual replicates, read-out: NCI-H1568 (18h) CTG
Procedure: 500–2000 cells were seeded in white, clear bottom 96-well plates (Corning or Perkin Elmer) in 180–200 µl medium per well. The next day, compounds were added using a digital dispenser and a T0 sample was measured for reference. […], and viability (luminescence) was measured using CellTiter Glo or CellTiter Glo 2.0 (Promega) according to manufacturer’s instructions after equilibrating cells and reagents at room temperature and 10–20 min incubation time while shaking.

[3] = target: T2, SMARCA4 (Homo sapiens, UniProt P51532); assay: SMARCA4 capillary electrophoresis protein assay in RKO cells; format: cell-based; set-up: endogenous in cells; host or cells: RKO, HCT116, LU99, HCC-364, HCT-15, HCC4006, SK-N-AS
T2 sequence (P51532 whole entry): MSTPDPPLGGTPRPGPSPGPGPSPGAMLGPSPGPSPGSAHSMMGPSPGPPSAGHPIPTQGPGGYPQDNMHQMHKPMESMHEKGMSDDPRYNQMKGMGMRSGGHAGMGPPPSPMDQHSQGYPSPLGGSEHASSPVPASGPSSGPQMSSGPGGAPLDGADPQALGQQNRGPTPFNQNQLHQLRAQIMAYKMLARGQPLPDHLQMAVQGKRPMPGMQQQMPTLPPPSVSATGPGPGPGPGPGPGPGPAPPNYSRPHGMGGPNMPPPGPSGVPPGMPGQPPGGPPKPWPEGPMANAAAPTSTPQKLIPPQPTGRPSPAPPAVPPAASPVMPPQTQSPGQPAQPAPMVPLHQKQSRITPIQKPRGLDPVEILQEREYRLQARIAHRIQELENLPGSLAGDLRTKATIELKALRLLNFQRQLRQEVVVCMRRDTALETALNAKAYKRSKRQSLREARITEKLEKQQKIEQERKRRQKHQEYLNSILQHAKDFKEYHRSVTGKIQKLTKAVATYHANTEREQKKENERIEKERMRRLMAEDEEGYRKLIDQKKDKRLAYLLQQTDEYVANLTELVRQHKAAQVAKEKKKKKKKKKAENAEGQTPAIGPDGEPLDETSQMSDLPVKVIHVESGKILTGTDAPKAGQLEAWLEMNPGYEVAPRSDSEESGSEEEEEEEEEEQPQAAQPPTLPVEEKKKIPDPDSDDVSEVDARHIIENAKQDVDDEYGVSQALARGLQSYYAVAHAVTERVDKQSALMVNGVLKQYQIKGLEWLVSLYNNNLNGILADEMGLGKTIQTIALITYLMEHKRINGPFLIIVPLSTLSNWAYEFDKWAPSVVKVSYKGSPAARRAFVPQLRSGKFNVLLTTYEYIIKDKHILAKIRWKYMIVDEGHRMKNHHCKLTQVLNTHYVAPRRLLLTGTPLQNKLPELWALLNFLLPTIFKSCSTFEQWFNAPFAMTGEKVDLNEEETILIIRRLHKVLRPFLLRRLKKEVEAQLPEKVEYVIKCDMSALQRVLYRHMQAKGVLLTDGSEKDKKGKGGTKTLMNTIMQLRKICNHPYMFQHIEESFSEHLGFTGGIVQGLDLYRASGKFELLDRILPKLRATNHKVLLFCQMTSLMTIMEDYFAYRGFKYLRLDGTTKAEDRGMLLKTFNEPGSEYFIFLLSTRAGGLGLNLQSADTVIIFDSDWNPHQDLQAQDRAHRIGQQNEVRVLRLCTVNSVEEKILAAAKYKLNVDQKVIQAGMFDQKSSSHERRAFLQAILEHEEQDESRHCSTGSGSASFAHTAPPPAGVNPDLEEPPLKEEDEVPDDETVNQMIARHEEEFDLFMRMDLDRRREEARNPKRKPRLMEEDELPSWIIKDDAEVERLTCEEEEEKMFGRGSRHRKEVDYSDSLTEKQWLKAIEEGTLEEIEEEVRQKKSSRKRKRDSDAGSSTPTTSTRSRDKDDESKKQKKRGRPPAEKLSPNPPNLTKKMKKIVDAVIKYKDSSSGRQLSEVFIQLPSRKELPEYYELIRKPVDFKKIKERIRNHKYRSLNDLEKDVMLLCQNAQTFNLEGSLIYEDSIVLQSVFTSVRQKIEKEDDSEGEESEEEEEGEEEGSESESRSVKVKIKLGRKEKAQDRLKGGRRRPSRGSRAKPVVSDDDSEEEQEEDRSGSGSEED
Procedure: 130,000–200,000 cells were seeded in 24-well plates and incubated until settled down or overnight. Compounds were dissolved in DMSO and added to cells in indicated concentrations using a digital dispenser following an optional media change. Cells were incubated for 4 or 18 h as indicated. For SMARCA2/4 half-life determination, 150,000 or 200,000 cells were seeded in 24-well plates. The next day, 50 µg/ml cycloheximide (Sigma) was added and cells were incubated for 1–24 h. For SMARCA2/4 re-synthesis measurements, 200,000 cells were seeded in 24-well plates. The next day, 100 nM compound 6 was added for 4 h to degrade SMARCA2/4, and a sample was taken as baseline for normalisation. To allow re-synthesis, a VHL binder (compound 32, 25 or 50 µM) was then added for 3 or 24 h. Medium was removed, cells were washed with PBS and lysed with 80 µl Lysis Buffer (MSD Tris Lysis Buffer (#R60TX-2) + Halt Inhibitor Cocktail (100x) + Benzonase 0.5 µL/ml). Samples were frozen at −80 °C and thawed at room temperature before use. Samples were transferred to a V-bottom plate and insoluble debris was pelleted by centrifugation for 5 min at maximum speed. The supernatant was transferred to a fresh plate. Master Mix and Ladder were prepared according to manufacturer’s instructions for 12–230 kDa Wes Separation Module, 8 × 25 capillary cartridges, Protein Simple #SM-W004 with Anti-Rabbit Detection Module for Wes, Peggy Sue or Sally Sue, Protein Simple #DM-001. 4.8 µl lysate were mixed with 1.2 µl Master Mix to achieve a protein concentration of ~0.5 µg/µl. Antibodies were diluted in Antibody Diluent II (SMARCA2 Sigma #HPA029981 RRID:AB_10602406 1:25–100, SMARCA4 Cell Signalling #49360 clone D1Q7F RRID:AB_2728743 1:15–120 or Abcam #ab110641 clone EPNCIR111A RRID:AB_10861578 1:60, GAPDH Abcam #ab9485 RRID:AB_307275 1:250). Wes plates were prepared and run according to manufacturer’s instructions. Proteins were quantified with accompanying Compass Software. SMARCA2/4 protein levels were normalised to GAPDH. […] Where applicable, curves were fitted using a 4-parametric logistic model.

[4] = target: T2, SMARCA4; assay: Imaging-based SMARCA4 protein assay in RKO cells; format: cell-based; set-up: endogenous in cells; host or cells: RKO, HCT116, LU99, HCC-364, HCT-15, HCC4006, SK-N-AS; details: individual replicates
Procedure: 1250 cells per well in 60 µl medium were plated in flat bottom, poly-lysin coated 384-well plates (CellCarrier Ultra, Perkin Elmer). The next day, test compounds (10 µl of serial dilutions) and DMSO controls were diluted in DMEM medium such that the final DMSO content was <1% or were added using an ultrasound dispensing system. 4 wells were reserved for a background measurement. […] After aspirating the fixing solution, the cells were washed once with 25 µl PBS. 25 µl of blocking buffer (10% goat serum in PBS) was added and cells were incubated for 30 min, then washed once with PBS. Cells were stained with 20 µl of SMARCA2/4 primary antibody solution (Sigma #HPA029981 RRID:AB_10602406 1:1000 or Cell Signalling #52251 clone E9O6 RRID:AB_2799410 1:1000 in PBS with 10% FCS) for 2–4 h at room temperature. Cells were again washed once with PBS. […] The cell layer was then washed once with 25 µl PBS, the wells were filled with 25 µl PBS and the plates were sealed with an adhesive sheet. They were then imaged on the Opera Phoenix (mean intensity in the nucleus). Results were computed as percent of controls ((value of test compound − background)/(value of the negative control DMSO—background) multiplied by 100). EC50 values were computed using a 4-parametric logistic model.

[5] = target: VCB: PROTAC: SMARCA4^BD ternary complex (Homo sapiens, UniProt P40337+P51532); assay: TR-FRET ternary complex affinity and cooperativity, SMARCA4; format: binding; set-up: P51532, residues 1448–1569 with additional N-terminal SM residues; GST (TEV site) (N); His6 (TEV site) (N, cleaved yes); made in house; host or cells: SMARCA4^BD: Escherichia coli BL21(DE3)
Chain of VCB: PROTAC: SMARCA4^BD ternary complex (P51532 1448-1569): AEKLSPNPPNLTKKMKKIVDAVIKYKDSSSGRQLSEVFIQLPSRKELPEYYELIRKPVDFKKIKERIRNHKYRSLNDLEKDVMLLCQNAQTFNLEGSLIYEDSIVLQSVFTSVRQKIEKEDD
Chain of VCB: PROTAC: SMARCA4^BD ternary complex (P40337 54-213): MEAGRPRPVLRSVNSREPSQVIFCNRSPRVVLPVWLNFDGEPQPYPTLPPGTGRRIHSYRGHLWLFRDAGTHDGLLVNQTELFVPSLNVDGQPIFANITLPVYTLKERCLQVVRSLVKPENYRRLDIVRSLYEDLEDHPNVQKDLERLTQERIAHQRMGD
Chain of VCB: PROTAC: SMARCA4^BD ternary complex (Q15369 17-112 partner): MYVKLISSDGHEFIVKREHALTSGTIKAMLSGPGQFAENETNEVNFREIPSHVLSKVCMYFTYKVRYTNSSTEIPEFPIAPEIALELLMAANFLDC
Chain of VCB: PROTAC: SMARCA4^BD ternary complex (Q15370 1-104 partner): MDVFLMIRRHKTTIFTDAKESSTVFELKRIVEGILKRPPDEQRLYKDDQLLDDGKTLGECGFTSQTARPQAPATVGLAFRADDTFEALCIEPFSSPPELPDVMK

[6] = TR-FRET competition for SMARCA2BD, without VCB, mean ± SD, read-out: TR-FRET SMARCA2BD EC50
[7] = binary, PROTAC alone, individual replicates, read-out: SMARCA2 BD EC50
[8] = 18h, read-out: RKO (18h) SMARCA4 DC50
[9] = PROTAC + VCB, individual replicates, read-out: Ternary SMARCA4 BD EC50 (PROTAC + VCB)
[10] = TR-FRET competition for SMARCA4BD, + VCB, mean ± SD, read-out: TR-FRET Ternary SMARCA4BD EC50 (PROTAC + VCB)
[11] = Homo sapiens, NCI-H1568, […], read-out: EC50 cell proliferation (CellTiter Glo)
[12] = 4h, read-out: RKO (4h) SMARCA4 DC50

Cc1ncsc1-c1ccc(C(CCC(C)CCN2CCC(c3ccc4c(c3)n(C3CCCC3)c3nc(=O)c5c(Br)cccc5n43)CC2)NC(=O)C2CC(O)CN2C(=O)C(NC(=O)C2(F)CC2)C(C)(C)C)cc1 (centres unmarked) [ACBI2]
EC50 [1, 6]: 172 ± 109 nM
EC50 [1, 7]: 94.6 nM and 127 nM and 166 nM and 204 nM and 373 nM
EC50 ([2]; Homo sapiens, NCI-H1568, assay not given, read-out: EC50): 7 nM
EC50 ([2]; Homo sapiens, NCI-H1568, read-out: LogEC50 (viability) (converted)): 7.43 nM
EC50 ([2]; Homo sapiens, NCI-H1568, values derived from curves in Extended Fig 4b, read-out: EC50 mean): 7.43 nM
Bottom (% Viability, four-parameter fit) ([2]; NCI-H1568): 1.886%
HillSlope (viability) ([2]; NCI-H1568): -1.08
Top (% Viability, four-parameter fit) ([2]; NCI-H1568): 95.68%
IC50 ([2]; NCI-H1568, (18h)): 6.58 nM and 10.7 nM and 3.99 nM and 10.8 nM and 11.1 nM and 3.71 nM
% Viability ([2]; NCI-H1568, log10 conc -5 mol/l): -0.296% and -0.02611% and -0.1217% and 0.4768% and -0.2501%
% Viability ([2]; NCI-H1568, log10 conc -5.30103 mol/l): -0.06113% and -0.2267%
% Viability ([2]; NCI-H1568, log10 conc -5.50031 mol/l): 0.1326% and 0.2417% and 0.02451% and 0.1536% and 0.8908%
% Viability ([2]; NCI-H1568, log10 conc -5.90309 mol/l): 0.4837%
% Viability ([2]; NCI-H1568, log10 conc -6.50446 mol/l): 2.441% and 0.7903%
% Viability ([2]; NCI-H1568, log10 conc -7.10735 mol/l): 8.308% and 6.732%
% Viability ([2]; NCI-H1568, log10 conc -8.31158 mol/l): 56.5669% and 89.3041%
% Viability ([2]; NCI-H1568, log10 conc -8.91364 mol/l): 76.9492% and 107.085%
% Viability ([2]; NCI-H1568, log10 conc -9.5157 mol/l): 76.1437% and 99.3609%
% Viability ([2]; NCI-H1568, log10 conc -10 mol/l): 102.65% and 94.5594% and 117.406% and 60.7547% and 106.867%
% Viability ([2]; NCI-H1568, log10 conc -10.1175 mol/l): 83.2326% and 93.6592%
% Viability ([2]; NCI-H1568, log10 conc -10.5003 mol/l): 109.307% and 95.7558% and 110.528% and 76.6212%
DC50 ([3]; RKO (4 h), mean ± SD): > 25000 nM
DC50 ([3]; RKO cells, time not stated at the place (Supplementary Data 2)): 32 nM
Dmax ([3]; RKO, RKO (18 h), mean ± SD): 67 ± 8%
Bottom (% protein remaining, four-parameter fit) ([3]; RKO, SM4): 39.28%
Top (% protein remaining, four-parameter fit) ([3]; RKO, SM4): 143.4%
% protein remaining ([3]; RKO, SM4, conc 9.54e-12 mol/l): 113.734% and 126.165%
% protein remaining ([3]; RKO, SM4, conc 3.81e-11 mol/l): 121.614% and 148.911%
% protein remaining ([3]; RKO, SM4, conc 1.53e-10 mol/l): 135.787% and 142.842%
% protein remaining ([3]; RKO, SM4, conc 6.1e-10 mol/l): 143.182% and 145.479%
% protein remaining ([3]; RKO, SM4, conc 2.44e-9 mol/l): 149.21% and 160.401%
% protein remaining ([3]; RKO, SM4, conc 9.77e-9 mol/l): 171.8% and 162.178%
% protein remaining ([3]; RKO, SM4, conc 3.91e-8 mol/l): 85.9345% and 100.013%
% protein remaining ([3]; RKO, SM4, conc 1.56e-7 mol/l): 33.2702% and 37.8218%
% protein remaining ([3]; RKO, SM4, conc 6.25e-7 mol/l): 30.6123% and 41.0571%
% protein remaining ([3]; RKO, SM4, conc 2.5e-6 mol/l): 28.0108%
% protein remaining ([3]; RKO, SM4, conc 1e-5 mol/l): 64.9119%
DC50 [4, 8]: 37.7 nM and 30.3 nM and 30.7 nM and 30.9 nM and 26.2 nM and 33.5 nM and 25.2 nM and 30.8 nM and 63.4 nM and 30 nM and 29.1 nM and 27.7 nM
EC50 [5, 9]: 80.9 nM and 99.7 nM and 79.5 nM
EC50 [5, 10]: 86 ± 11 nM

O=c1nc2n(C3CCCC3)c3ccccc3n2c2cccc(Br)c12 [compound 1]
EC50 [1, 6]: 425 ± 11 nM
EC50 [1, 7]: 413 nM and 429 nM and 435 nM
EC50 [2, 11]: 1100 nM
DC50 ([3]; RKO (4 h), mean ± SD): > 25000 nM
DC50 ([3]; RKO (18 h), mean ± SD): > 25000 nM
DC50 [4, 12]: > 25000 nM
DC50 [4, 8]: > 25000 nM
EC50 [5, 9]: 824 nM and 894 nM and 817 nM
EC50 [5, 10]: 844 ± 42 nM

Nc1cccc2c1c(=O)nc1n(C3CCCC3)c3ccccc3n21 [compound 2]
EC50 [1, 6]: 1770 nM
EC50 [1, 7]: 1620 nM and 1970 nM and 1530 nM and 2040 nM
IC50 ([2]; Homo sapiens, NCI-H1568, 18 h): > 10000 nM
EC50 [2, 11]: > 10000 nM
DC50 ([3]; RKO (4 h), mean ± SD): > 25000 nM
DC50 ([3]; RKO (18 h), mean ± SD): > 25000 nM
DC50 [4, 12]: 2.7 µM and > 25 µM (2×)
DC50 [4, 8]: > 25000 nM
EC50 [5, 9]: 2270 nM and 2610 nM and 2110 nM
EC50 [5, 10]: 2320 nM

Cc1ncsc1-c1ccc(CNC(=O)[C@@H]2C[C@@H](O)CN2C(=O)[C@@H](NC(=O)C2(F)CC2)C(C)(C)C)c(OCCCCN2CCC(c3ccc4c(c3)n(C3CCCC3)c3nc(=O)c5c(Br)cccc5n43)CC2)c1 [compound 23]
EC50 [1, 6]: 98 ± 12 nM
EC50 [1, 7]: 88.5 nM and 111 nM and 107 nM and 87.4 nM
EC50 ([2]; NCI-H1568 ([…]), mean ± SD, read-out: EC50 cell proliferation (CellTiter Glo)): 104 ± 27 nM
IC50 ([2]; NCI-H1568, (18h)): 133 nM and 78.5 nM and 108 nM
DC50 ([3]; RKO (4 h), mean ± SD): > 25000 nM
DC50 ([3]; RKO (18 h), mean ± SD): 1260 nM
SMARCA4 Dmax ([3]; RKO (18 h), mean ± SD): 76 ± 30%
EC50 [5, 9]: 165 nM and 215 nM and 180 nM and 280 nM
EC50 [5, 10]: 206 ± 51 nM
